≈ marks a conversion by molar mass, not a printed value.
Columns and labels:
Escherichia coli [1] = conditions: E. coli MMX 102 (ATCC 25922); CLSI QC ranges shown in parenthesis; cited from earlier work
Pseudomonas aeruginosa [2] = conditions: P. aeruginosa MMX 103 (ATCC 27853); CLSI QC ranges shown in parenthesis; cited from earlier work
Escherichia coli [3] = experiment: Broth microdilution MIC (Example 11)
Klebsiella pneumoniae = experiment: Broth microdilution MIC (Example 11)
Enterobacter cloacae = experiment: Broth microdilution MIC (Example 11); conditions: ATCCBAA2468
Pseudomonas aeruginosa [4] = experiment: Broth microdilution MIC (Example 11); conditions: Pseudomonas aeruginosa
Acinetobacter baumannii = experiment: Broth microdilution MIC (Example 11); conditions: Acinetobacter baumannii
[5] = system: Staphylococcus aureus (MRSA); experiment: Broth microdilution MIC (Example 11)
E. faecalis = experiment: Broth microdilution MIC (Example 11); conditions: Enterococcus faecalis, VRE, VRE Lev^R Cip^R Ery^R
S. pneumoniae = experiment: Broth microdilution MIC (Example 11); conditions: Streptococcus pneumoniae
S. pyogenes = experiment: Broth microdilution MIC (Example 11); conditions: Streptococcus pyogenes
S. agalactiae = experiment: Broth microdilution MIC (Example 11); conditions: Streptococcus agalactiae
[6] = system: vancomycin-intermediate Staphylococcus aureus (VISA); experiment: Broth microdilution MIC (Example 12); conditions: Staphylococcus aureus, NRS13 / VISA, read-out: MIC values
Haemophilus influenzae = experiment: Broth microdilution MIC against Haemophilus influenzae clinical isolates; conditions: Haemophilus influenzae

Structure (SMILES): C[C@H]1COc2c(N3CCN(C)CC3)c(F)cc3c(=O)c(C(=O)O)cn1c23 [Levofloxacin, reference compound]
- CLSI QC range of MIC (Escherichia coli [1]): (0.008-0.06)^1 μg/mL
- CLSI QC range of MIC (Pseudomonas aeruginosa [2]): (0.5-4) μg/mL
- MIC (Escherichia coli [3]; ATCC25922, E. coli MMX 102 (ATCC 25922), QC): 0.015 mg/L (≈ 0.0415 µM)
- MIC (Escherichia coli [3]; ATCCBAA2469, E. coli MMX 5980 (ATCC BAA-2469), NDM-1, Lev^R, MEM^R, CAZ^R, Gm^R): 16 mg/L (≈ 44.3 µM)
- MIC (Escherichia coli [3]; E. coli MMX 8423, ESBL, Lev^R, CAZ^R, Gm^R): 16 mg/L (≈ 44.3 µM)
- MIC (Escherichia coli [3]; E. coli MMX 8424, ESBL, CAZ^R): 0.06 mg/L (≈ 0.166 µM)
- MIC (Escherichia coli [3]; E. coli MMX 8425, ESBL, Lev^R, CAZ^R, Gm^R): 16 mg/L (≈ 44.3 µM)
- MIC (Klebsiella pneumoniae; K. pneumoniae MMX 4622, KPC-2, MEM^R, CAZ^R): 1 mg/L (≈ 2.77 µM)
- MIC (Klebsiella pneumoniae; K. pneumoniae MMX 4623, KPC-2, MEM^R, CAZ^R, GM^R): 1 mg/L (≈ 2.77 µM)
- MIC (Klebsiella pneumoniae; K. pneumoniae MMX 4653, KPC-3, Lev^R, MEM^R, CAZ^R): 64 mg/L (≈ 177 µM)
- MIC (Klebsiella pneumoniae; K. pneumoniae MMX 4683, KPC-2, Lev^R, MEM^R, CAZ^R): > 64 mg/L
- MIC (Klebsiella pneumoniae; K. pneumoniae MMX 4684, ESBL, MEM^R): 0.03 mg/L (≈ 0.083 µM)
- MIC (Klebsiella pneumoniae; K. pneumoniae MMX 4685, ESBL, Lev^R, MEM^R, CAZ^R): 32 mg/L (≈ 88.6 µM)
- MIC (Klebsiella pneumoniae; K. pneumoniae MMX 4694, KPC-3, Lev^R, MEM^R, CAZ^R): 64 mg/L (≈ 177 µM)
- MIC (Klebsiella pneumoniae; K. pneumoniae MMX 5979, NDM-1, Lev^R, MEM^R, CAZ^R, Gm^R): > 64 mg/L
- MIC (Enterobacter cloacae): 64 mg/L (≈ 177 µM)
- MIC (Pseudomonas aeruginosa [4]; ATCC27853, P. aeruginosa MMX 103 (ATCC 27853), QC): 1 mg/L (≈ 2.77 µM)
- MIC (Pseudomonas aeruginosa [4]; P. aeruginosa MMX 1381, MDR, Lev^R, Cip^R, MEM^R, CAZ^R): 64 mg/L (≈ 177 µM)
- MIC (Pseudomonas aeruginosa [4]; P. aeruginosa MMX 2562, MDR, Lev^R, Cip^R, MEM^R, CAZ^R): 64 mg/L (≈ 177 µM)
- MIC (Pseudomonas aeruginosa [4]; P. aeruginosa MMX 3991, MDR, Lev^R, Cip^R, MEM^R, CAZ^R): 64 mg/L (≈ 177 µM)
- MIC (Pseudomonas aeruginosa [4]; P. aeruginosa MMX 4654, IMP-7, Lev^R, Cip^R, MEM^R, CAZ^R): 64 mg/L (≈ 177 µM)
- MIC (Pseudomonas aeruginosa [4]; P. aeruginosa MMX 4697, VIM-2, Lev^R, Cip^R, MEM^R, CAZ^R): 32 mg/L (≈ 88.6 µM)
- MIC (Acinetobacter baumannii; A. baumannii MMX 2592, MDR, Lev^R, Cip^R, MEM^R, CAZ^R, Gm^R): 64 mg/L (≈ 177 µM)
- MIC (Acinetobacter baumannii; A. baumannii MMX 2593, MDR, Lev^R, Cip^R, MEM^R, CAZ^R, Gm^R): 32 mg/L (≈ 88.6 µM)
- MIC (Acinetobacter baumannii; A. baumannii MMX 3372, MDR, Cip^R, MEM^I, CAZ^I): 1 mg/L (≈ 2.77 µM)
- MIC (Acinetobacter baumannii; A. baumannii MMX 3373, Sensitive): 0.12 mg/L (≈ 0.332 µM)
- MIC (Acinetobacter baumannii; NCTC13304, A. baumannii MMX 4651 (NCTC 13304), MDR, OXA-27, Lev^R, Cip^R, MEM^R, CAZ^R, Gm^I): 8 mg/L (≈ 22.1 µM)
- MIC ([5]; ATCC29213|MRSA|MSSA, S. aureus MMX 101 (ATCC 29213), QC, MSSA): 0.12 mg/L (≈ 0.332 µM)
- MIC ([5]; MRSA, S. aureus MMX 5373, MRSA Lev^R Cip^R CC^R Ery^R Ox^R): 32 mg/L (≈ 88.6 µM)
- MIC ([5]; MRSA, S. aureus MMX 6311, MRSA Lev^R Cip^R CC^R Ery^R Ox^R): 32 mg/L (≈ 88.6 µM)
- MIC ([5]; MRSA, S. aureus MMX 9203, MRSA Lev^R Cip^R Ery^R Ox^R): 4 mg/L (≈ 11.1 µM)
- MIC ([5]; MRSA, S. aureus MMX 9204, MRSA Lev^R Cip^R Ery^R Ox^R): 4 mg/L (≈ 11.1 µM)
- MIC ([5]; MRSA, S. aureus MMX 9205, MRSA Lev^R Cip^R CC^R Ery^R Ox^R): > 64 mg/L
- MIC (E. faecalis; E. faecalis MMX 8960): 32 mg/L (≈ 88.6 µM)
- MIC (E. faecalis; E. faecalis MMX 8961): 64 mg/L (≈ 177 µM)
- MIC (E. faecalis; E. faecalis MMX 8962): 64 mg/L (≈ 177 µM)
- MIC (S. pneumoniae; ATCC49619, S. pneumoniae MMX 6837 (ATCC 49619), QC): 0.5 mg/L (≈ 1.38 µM)
- MIC (S. pneumoniae; S. pneumoniae MMX 880, Lev^R SXT^R CC^R Ery^R Pen^R): 8 mg/L (≈ 22.1 µM)
- MIC (S. pneumoniae; S. pneumoniae MMX 937, Mem^R SXT^R CC^R Ery^R Pen^R): 1 mg/L (≈ 2.77 µM)
- MIC (S. pneumoniae; S. pneumoniae MMX 3959, CC^R Ery^R): 1 mg/L (≈ 2.77 µM)
- MIC (S. pneumoniae; S. pneumoniae MMX 5440, Mem^R SXT^R CC^R Ery^R Pen^R): 1 mg/L (≈ 2.77 µM)
- MIC (S. pneumoniae; S. pneumoniae MMX 5445, Mem^R SXT^R CC^R Ery^R Pen^R): 1 mg/L (≈ 2.77 µM)
- MIC (S. pneumoniae; S. pneumoniae MMX 8133, Mem^R SXT^R CC^R Ery^R Pen^R): 1 mg/L (≈ 2.77 µM)
- MIC (S. pyogenes; S. pyogenes MMX 3068, Ery^R): 0.5 mg/L (≈ 1.38 µM)
- MIC (S. pyogenes; S. pyogenes MMX 3820, ERY^R CLI^R): 0.25 mg/L (≈ 0.692 µM)
- MIC (S. pyogenes; S. pyogenes MMX 3919, ERY^R): 0.12 mg/L (≈ 0.332 µM)
- MIC (S. pyogenes; S. pyogenes MMX 3929, ERY^R CC^R): 0.5 mg/L (≈ 1.38 µM)
- MIC (S. pyogenes; S. pyogenes MMX 5091, ERY^R CC^R): 0.25 mg/L (≈ 0.692 µM)
- MIC (S. agalactiae; S. agalactiae MMX 3741, ERY^R CC^R): 0.5 mg/L (≈ 1.38 µM)
- MIC (S. agalactiae; S. agalactiae MMX 3743, ERY^R CC^R): 1 mg/L (≈ 2.77 µM)
- MIC (S. agalactiae; S. agalactiae MMX 4077, ERY^R CC^R): 0.5 mg/L (≈ 1.38 µM)
- MIC (S. agalactiae; S. agalactiae MMX 4079, ERY^R CC^R Pen^R MEM^R): 1 mg/L (≈ 2.77 µM)
- MIC (S. agalactiae; S. agalactiae MMX 4086, ERY^R CC^R): 0.5 mg/L (≈ 1.38 µM)
- MIC [6]: ≥ 4 mg/L
- MIC50 (Haemophilus influenzae): 0.015 mg/L (≈ 0.0415 µM)
- MIC90 (Haemophilus influenzae): 0.015 mg/L (≈ 0.0415 µM)

From patent publication US11464749B2, “Bismuth-thiol compositions and methods of use” (Microbion Corporation, priority 2018, dated 2022)
